Test results from the supplement of paper PMC10307832.

How the values were obtained:
Experiment in all cases: relative viability (nuclei count vs DMSO), 5 days (fraction); higher = more cells survive
Navitoclax = compound: CC1(C)CCC(c2ccc(Cl)cc2)=C(CN2CCN(c3ccc(C(=O)NS(=O)(=O)c4ccc(N[C@H](CCN5CCOCC5)CSc5ccccc5)c(S(=O)(=O)C(F)(F)F)c4)cc3)CC2)C1 [Navitoclax]
Procedure, shortened: (§1)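 Following overnight incubation at 37 °C, lung cancer cell lines in 1536-well plates were pinned with five library-drug doses (not always all listed) in √10 steps on vehicle-anchored plates. The cells then spent 5 days without medium change before a combined fix, permeabilisation and Hoechst stain, 4× imaging and MetaXpress nuclear counts. Viability is the treated-to-vehicle ratio of nuclei, taken as the median across plates. Only plates with control CV below 25% and at least one doubling passed.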

C-75 = compound: CCCCCCCC[C@H]1[C@@H](C(=C)C(=O)O1)C(=O)O [C-75]
Procedure, shortened: as §1

AZD7762 = compound: NC(=O)Nc1cc(-c2cccc(F)c2)sc1C(=O)N[C@H]1CCCNC1 [AZD7762]
Procedure, shortened: as §1

[1] = compound: O=C(O)c1ccc(-c2c[nH]c3ncc(-c4ccccc4)cc23)cc1C1CCCC1
Procedure, shortened: as §1

XAV939 = compound: Oc1nc(-c2ccc(C(F)(F)F)cc2)nc2c1CSCC2 [XAV939]
Procedure, shortened: as §1

| Cell Line | relative viability (Navitoclax; 0.005 µM) | relative viability (Navitoclax; 0.01581 µM) | relative viability (Navitoclax; 0.05 µM) | relative viability (Navitoclax; 0.1581 µM) | relative viability (Navitoclax; 0.5 µM) | relative viability (Navitoclax; 0.5 µM, anchor plate) | relative viability (C-75; 0.08 µM) | relative viability (C-75; 0.253 µM) | relative viability (C-75; 0.8 µM) | relative viability (C-75; 2.53 µM) | relative viability (C-75; 8 µM) | relative viability (AZD7762; 0.01 µM) | relative viability (AZD7762; 0.03162 µM) | relative viability (AZD7762; 0.1 µM) | relative viability (AZD7762; 0.2 µM, anchor plate) | relative viability (AZD7762; 0.3162 µM) | relative viability (AZD7762; 1 µM) | relative viability ([1]; 0.04 µM) | relative viability ([1]; 0.1265 µM) | relative viability ([1]; 0.4 µM) | relative viability ([1]; 1.265 µM) | relative viability (XAV939; 0.08 µM) | relative viability (XAV939; 0.253 µM) | relative viability (XAV939; 0.8 µM) | relative viability (XAV939; 2.53 µM) |
| --- | --- | --- | --- | --- | --- | --- | --- | --- | --- | --- | --- | --- | --- | --- | --- | --- | --- | --- | --- | --- | --- | --- | --- | --- | --- |
| HCC-15 | 0.986 | 1.14 | 0.838 | 0.99 | 0.947 | 0.696 | 1 | 0.965 | 0.968 | 0.798 | 0.925 | 1.02 | 0.907 | 1.02 | 1.24 | 0.969 | 1.03 | 1.03 | 1.07 | 0.965 | 0.586 | 1.14 | 0.932 | 0.96 | 0.971 |
| NCI-H1437 | 0.969 | 1.05 | 0.932 | 0.958 | 0.974 | 1.06 | 0.941 | 1.05 | 0.919 | 0.984 | 0.987 | 1.05 | 0.963 | 1.04 | 1.11 | 1.01 | 0.867 | 0.962 | 0.988 | 0.976 | 0.586 | 1.03 | 0.901 | 0.999 | 0.93 |
| NCI-H1355 | 1.03 | 1.07 | 0.956 | 0.975 | 0.986 | 1.01 | 0.966 | 1.01 | 0.921 | 0.89 | 0.982 | 0.874 | 0.979 | 0.938 | 0.819 | 1.09 | 0.785 | 1.02 | 1.14 | 0.979 | 0.744 | 0.938 | 0.831 | 0.826 | 0.759 |
| NCI-H1755 | 1.01 | 1.02 | 0.897 | 0.957 | 0.966 | 0.988 | 0.954 | 0.972 | 0.946 | 0.845 | 0.982 | 1.01 | 1.02 | 1.09 | 0.458 | 0.936 | 0.471 | 1.01 | 1.09 | 1.04 | 0.956 | 0.961 | 0.834 | 0.931 | 0.876 |
| NCI-H2228 | 0.965 | 1.01 |  | 0.968 | 1.11 | 0.968 | 0.969 | 1.09 | 0.952 | 0.986 | 1.06 | 1.17 | 0.982 | 0.997 |  | 0.649 | 0.361 | 0.942 | 1.09 | 0.924 | 0.639 | 1.01 | 0.811 | 0.921 | 0.88 |
| NCI-H1792 | 0.956 | 0.936 | 0.778 | 0.693 | 1.06 | 0.664 | 0.904 | 0.956 | 0.845 | 0.76 | 0.863 | 0.912 | 1.02 | 1.02 | 0.71 | 1.08 | 1.01 |  | 1.09 | 0.856 | 0.921 | 0.955 | 0.874 | 0.871 | 0.74 |
| NCI-H661 | 0.985 | 0.995 | 1.05 | 0.916 | 0.935 |  | 0.983 | 1.01 | 0.98 | 0.911 | 0.94 | 1.03 | 1.11 | 1.1 |  | 0.979 | 0.558 | 0.915 | 1.02 | 0.969 | 1.01 | 1.02 | 0.952 | 0.945 | 0.956 |
| NCI-H1648 | 0.914 | 1.07 |  | 0.78 | 1.09 |  | 0.758 | 1.27 | 0.737 |  | 0.899 | 1.29 | 1.08 | 0.87 | 0.676 | 0.932 | 0.99 | 1 | 1.15 | 0.75 | 0.768 | 0.794 | 0.764 | 0.887 | 0.737 |
| NCI-H2023 | 0.919 | 1.04 | 0.958 | 0.97 | 0.909 | 0.994 | 1 | 1.13 | 0.864 | 0.535 | 0.852 | 0.965 | 0.841 | 0.491 |  | 0.262 | 0.132 | 1.07 | 1.06 | 0.994 | 0.75 | 1.02 | 0.827 | 0.817 | 0.755 |
| NCI-H520 | 0.997 | 0.925 | 1.14 | 0.99 | 0.94 | 1.12 | 1.02 | 1.21 | 0.952 | 0.615 | 0.825 | 1.09 | 1.01 | 0.972 |  | 0.89 | 0.337 | 1.03 | 0.894 | 1.01 | 0.902 | 1.09 | 0.965 | 0.87 | 0.928 |
| SK-LU-1 | 1.01 | 1.06 | 1.12 | 0.949 | 1.02 | 0.813 | 1 | 1.06 | 0.964 | 0.894 | 0.816 | 1.1 | 1.06 | 0.633 |  | 0.366 | 0.242 | 1.01 | 1.13 | 0.978 | 0.74 | 1.01 | 1.02 | 1.03 | 1.07 |
| NCI-H1666 | 1.02 | 1.02 | 0.853 | 1.02 | 1.01 | 0.994 | 1.05 | 1.21 | 0.946 | 0.721 | 0.96 | 1.09 | 1.04 | 1.1 | 0.895 | 1.01 | 0.98 | 0.958 | 1.01 | 0.949 | 0.68 | 1.03 | 0.98 | 0.977 | 0.929 |
